Literature values as cited in US20170020833A1, “METHOD FOR TREATING AND/OR PREVENTING ACNE SCARS WITH A FIXED COMBINATION OF ADAPALENE OR ITS SALTS AND BENZOYL PEROXIDE” (GALDERMA RESEARCH & DEVELOPMENT, priority 2014, published 2017).

Test system: procollagen, MMP-1, 3 and MMP-9 in photodamage skin
Settings: oral or topical; leading to MMP-1, 3 and MMP-9 decrease in relation to treatment duration

SMILES: CC1=C(/C=C/C(C)=C/C=C/C(C)=C\C(=O)O)C(C)(C)CCC1 [isotretinoin]
- Effect on UV-induced loss of procollagen: protects against UV-induced loss of procollagen
